The values that follow come from publication PMC9186351, “Discovery of N-quinazolinone-4-hydroxy-2-quinolone-3-carboxamides as DNA gyrase B-targeted antibacterial agents” (Journal of Enzyme Inhibition and Medicinal Chemistry, 2022).

Converted amounts (≈) assume the structure as drawn. “And” between values parts separate entries of the source, which are not always exact repeats. Equal entries are not always repeated. Where two headings read alike, the source gives them in different places.

The target of one data set is T1, S. aureus GyrB (Staphylococcus aureus, UniProt P0A0K8).
T1 construct: purchased Inspiralis Ltd., Norwich, UK
The data set can be described thus: S. aureus GyrB (Gyrase ATPase) inhibition assay, ADP-Glo. The following applies: for inhibition at 10 µM: read-out: GyrB inhibition rate (%) at 10 μM; for IC50: IC50 for GyrB (µM, mean ± SD), S. aureus Gyrase ATPase inhibition, average of duplicates. The data set is classed as biochemical. The protocol:
The IC50 values for S. aureus GyrB were determined according to our previously reported protocol.[16] For this assay, the reaction mixture (10 μL) consisted of 5 nM S. aureus Gyrase (Inspiralis Ltd., Norwich, UK), assay buffer [40 mM HEPES-KOH (pH 7.6), 10 mM magnesium acetate, 10 mM dithiothreitol, 50 g/L BSA, and 500 mM potassium glutamate], the test compound (0.01–100 μM), 1% DMSO, 10 nM linear pBR322 DNA, and […]. The target compound was dissolved in DMSO (10 mM). A series of dilutions (0.1–1000 μM) were prepared from the stock solution with the assay buffer and DMSO. The dilutions (1 μL) were respectively added to the PCR tubes along with the buffer (7 μL), the linear pBR322 DNA (0.5 μL), S. aureus Gyrase (0.5 μL), and ATP (1 μL). The PCR tubes were sealed and incubated at 37 °C for 30 min. The ADP-Glo reagent (40 μL) was added to stop the reaction and use up the remaining ATP.
The detection reagent (50 μL) was then added and mixed. After 5 min, the mixture in each PCR tube was put in the well of a 96-well plate and its luminescence was measured by the BioTek Synergy 2 microplate reader. The activity values (%) of S. aureus Gyrase treated by the test compound at different concentrations were determined based on the luminescence. GraphPad Prism version 5 software (GraphPad Software Inc., La Jolla, CA) was used to calculate the IC50 values.

Data set [1] concerns methicillin-sensitive S. aureus (MSSA). The data set is described as follows: MIC by broth microdilution, MSSA isolates. Format: cell-based. The following applies: Staphylococcus aureus. The protocol:
All of the bacterial strains used in this study were obtained from the Collection Centre of Pathogen Microorganism of Chinese Academy of Medical Sciences (CAMS-CCPM-A) in China. All of the isolates were stored at −80 °C and streaked on tryptic soy agar (TSA) plates to obtain overnight cultures. The MICs of the test compounds were determined by the broth microdilution method in accordance with the Clinical and Laboratory Standards Institute (CLSI) guidelines.[20] Cation-adjusted Mueller-Hinton broth (CAMHB) was used as the growth medium for MIC assays. Briefly, 100 μL of serially diluted compounds (starting concentrations were 64 μg/mL) in CAMH broth were added to the wells of 96-well microtiter plates. Then, 10 µL of 5 × 10^6 CFU/mL bacterial culture was added to each well. […] The MIC was defined as the lowest concentration of a compound that inhibited visual growth of the bacteria. Vancomycin was set as the positive control for this assay.
A general note: In broth dilution the organism is exposed to a series of concentrations in liquid medium.

Setting [2] is: ATCC 29213 / BAA-1708 / BAA-976 / MSSA, ATCC 29213, 15, 18-3, BAA976, BAA1708, span over isolates, read-out: MIC over the five MSSA isolates.
[3] abbreviates: ATCC 29213 / MSSA, MSSA ATCC 29213, read-out: MIC.
Setting [4] is: BAA-976 / MSSA, MSSA BAA976, read-out: MIC.
Setting [5] is: BAA-1708 / MSSA, MSSA BAA1708, read-out: MIC.

T1 sequence (P0A0K8 whole entry): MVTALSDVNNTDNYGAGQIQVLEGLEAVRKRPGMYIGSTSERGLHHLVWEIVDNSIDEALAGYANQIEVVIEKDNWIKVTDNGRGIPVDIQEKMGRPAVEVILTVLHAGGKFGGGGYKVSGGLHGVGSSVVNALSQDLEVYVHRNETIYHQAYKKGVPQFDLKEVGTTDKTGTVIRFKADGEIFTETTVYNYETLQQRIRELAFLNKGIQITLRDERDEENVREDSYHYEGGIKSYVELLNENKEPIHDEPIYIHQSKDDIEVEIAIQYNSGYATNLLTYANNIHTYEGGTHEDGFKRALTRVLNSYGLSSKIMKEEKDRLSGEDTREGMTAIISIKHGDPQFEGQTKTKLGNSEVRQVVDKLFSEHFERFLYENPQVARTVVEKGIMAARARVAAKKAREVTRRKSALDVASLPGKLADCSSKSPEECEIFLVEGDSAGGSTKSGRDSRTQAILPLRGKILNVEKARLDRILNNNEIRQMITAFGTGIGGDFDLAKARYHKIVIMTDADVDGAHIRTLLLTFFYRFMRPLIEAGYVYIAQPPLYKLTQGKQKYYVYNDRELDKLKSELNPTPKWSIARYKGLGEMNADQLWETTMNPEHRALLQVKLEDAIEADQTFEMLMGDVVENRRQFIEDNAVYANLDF
T1 sequence (P20831 whole entry, further chain): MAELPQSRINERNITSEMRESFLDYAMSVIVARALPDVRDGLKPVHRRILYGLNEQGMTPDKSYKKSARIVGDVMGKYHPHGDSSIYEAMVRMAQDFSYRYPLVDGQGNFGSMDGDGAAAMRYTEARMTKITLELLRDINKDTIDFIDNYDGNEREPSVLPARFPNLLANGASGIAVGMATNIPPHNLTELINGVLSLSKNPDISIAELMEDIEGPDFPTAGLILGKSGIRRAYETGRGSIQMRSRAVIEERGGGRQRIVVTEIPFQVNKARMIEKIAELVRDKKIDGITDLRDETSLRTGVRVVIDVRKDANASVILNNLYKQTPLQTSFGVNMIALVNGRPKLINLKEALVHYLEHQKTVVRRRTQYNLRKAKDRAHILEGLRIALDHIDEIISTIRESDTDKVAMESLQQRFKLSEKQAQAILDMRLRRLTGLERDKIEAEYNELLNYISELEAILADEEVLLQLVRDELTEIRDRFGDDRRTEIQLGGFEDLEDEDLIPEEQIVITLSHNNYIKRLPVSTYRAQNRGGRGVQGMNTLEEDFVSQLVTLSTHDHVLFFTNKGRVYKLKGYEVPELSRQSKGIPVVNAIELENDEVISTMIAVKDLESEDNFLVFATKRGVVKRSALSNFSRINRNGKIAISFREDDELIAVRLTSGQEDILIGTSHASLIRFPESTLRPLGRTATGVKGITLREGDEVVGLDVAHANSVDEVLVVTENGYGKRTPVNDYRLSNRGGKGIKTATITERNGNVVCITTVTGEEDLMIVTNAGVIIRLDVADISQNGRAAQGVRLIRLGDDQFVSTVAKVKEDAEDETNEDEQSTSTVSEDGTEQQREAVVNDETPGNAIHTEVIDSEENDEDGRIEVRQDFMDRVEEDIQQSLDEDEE

Regarding `CCCn1c(=O)c(C(=O)NNC(=O)Cc2ccccc2)c(O)c2ccccc21` [AG- 690/36956135], at S. aureus GyrB, the inhibition at 10 µM was 6%. `CCCCCc1nc2cc(OC)c(OC)cc2c(=O)n1NC(=O)c1c(O)c2ccccc2n(CC)c1=O` [f9, N-(6,7-dimethoxy-4-oxo-2-pentylquinazolin-3(4H)-yl)-1-ethyl-4-hydroxy-2-oxo-1,2-dihydroquinoline-3-carboxamide] showed a melting point of 172.4 to 174.1 °C. Also, at S. aureus GyrB, the half-maximal inhibitory concentration (IC50) came to 1.06 ± 0.13 µM. With `C=CCn1c(=O)c(C(=O)NNC(=O)Cc2ccncc2)c(O)c2ccccc21` [AG-690/36469055], the inhibition at 10 µM at S. aureus GyrB turned out to be 15%. Same read-out and setting: the figure for `O=C(Nc1ccccc1-c1ccccc1)c1c(O)c2cccc3c2n(c1=O)CCC3` [AE-641/00629040] is 11%. `CCCCc1nc2ccccc2c(=O)n1NC(=O)c1c(O)c2ccccc2n(CC)c1=O` [f16, N-(2-butyl-4-oxoquinazolin-3(4H)-yl)-1-ethyl-4-hydroxy-2-oxo-1,2-dihydroquinoline-3-carboxamide] displayed a melting point of 139.8 to 140.5 °C. The IC50 on S. aureus GyrB stood at 2.34 ± 0.34 µM. As to `CCCCCC(=O)NNC(=O)c1c(O)c2ccccc2n(CCC)c1=O` [AG-690/11232780], the inhibition at 10 µM at S. aureus GyrB was 3%. `CCCc1nc2ccccc2c(=O)n1NC(=O)c1c(O)c2ccccc2n(CC)c1=O` [f15, N-(4-oxo-2-propylquinazolin-3(4H)-yl)-1-ethyl-4-hydroxy-2-oxo-1,2-dihydroquinoline-3-carboxamide]: the melting point fell in the range of 158.6 to 160.7 °C. For the same compound, on S. aureus GyrB, the IC50 worked out at 11.9 ± 2.3 µM. In the same order, the values of `CCCCCc1nc2ccc(Cl)cc2c(=O)n1NC(=O)c1c(O)c2ccccc2n(CC)c1=O` [f2, N-(6-chloro-4-oxo-2-pentylquinazolin-3(4H)-yl)-1-ethyl-4-hydroxy-2-oxo-1,2-dihydroquinoline-3-carboxamide] are 141.5 to 143.1 °C and 1.58 ± 0.06 µM.

Compound `CCCCCc1nc2c(OC)cccc2c(=O)n1NC(=O)c1c(O)c2ccccc2n(CC)c1=O` [f12, N-(8-methoxy-4-oxo-2-pentylquinazolin-3(4H)-yl)-1-ethyl-4-hydroxy-2-oxo-1,2-dihydroquinoline-3-carboxamide] came in with a melting point of 178.3 to 180.1 °C. Further, the IC50 at S. aureus GyrB was 0.878 µM and 0.88 µM. As to `CCCCCCn1c(=O)c(C(=O)Nc2ccccc2Br)c(O)c2ccccc21` [AG-690/11232728], on S. aureus GyrB, the inhibition at 10 µM stood at 12%. In the case of `CCn1c(=O)c(C(=O)NNC(=O)c2ccccc2Br)c(O)c2ccccc21` [AG-690/11765298], on S. aureus GyrB, the inhibition at 10 µM is 45%. As to `CCn1c(=O)c(C(=O)NNS(=O)(=O)c2ccc(Br)cc2)c(O)c2ccccc21` [AG-690/11765340], the inhibition at 10 µM on S. aureus GyrB amounted to 10%.

In the case of `CCCCCc1nc2ccc(C(F)(F)F)cc2c(=O)n1NC(=O)c1c(O)c2ccccc2n(CC)c1=O` [f5, N-(4-oxo-2-pentyl-6-(trifluoromethyl)quinazolin-3(4H)-yl)-1-ethyl-4-hydroxy-2-oxo-1,2-dihydroquinoline-3-carboxamide], the melting point was 128.3 to 130.2 °C. The IC50 on S. aureus GyrB turned out to be 0.81 ± 0.17 µM. Turning to `CCCCCCn1c(=O)c(C(=O)Nc2ccc(Cl)cn2)c(O)c2ccccc21` [AG-690/11557825], the inhibition at 10 µM at S. aureus GyrB came to 6%. Compound `CCCCCc1nc2ccc(OC)cc2c(=O)n1NC(=O)c1c(O)c2ccccc2n(CC)c1=O` [f4, N-(6-methoxy-4-oxo-2-pentylquinazolin-3(4H)-yl)-1-ethyl-4-hydroxy-2-oxo-1,2-dihydroquinoline-3-carboxamide] registered a melting point of 98.7 to 99.9 °C. In addition, the MIC in data set [1] (setting [2]) is no less than 32 µg/mL. Also, the MIC in data set [1] (setting [3]) was greater than 64 µg/mL. For the same compound, the MIC in data set [1] (setting [4]) is 32 µg/mL (≈ 67.2 µM). The MIC in data set [1] (setting [5]) is greater than 64 µg/mL. For the same compound, the MIC in data set [1] (MSSA, MSSA 15, read-out: MIC) was 64 µg/mL (≈ 134 µM). For the same compound, the MIC in data set [1] (MSSA, MSSA 18-3, read-out: MIC) turned out to be 64 µg/mL (≈ 134 µM). Further, the IC50 on S. aureus GyrB stood at 0.31 ± 0.07 µM. `CCCCCc1nc2cc(Cl)ccc2c(=O)n1NC(=O)c1c(O)c2ccccc2n(CC)c1=O` [f6, N-(7-chloro-4-oxo-2-pentylquinazolin-3(4H)-yl)-1-ethyl-4-hydroxy-2-oxo-1,2-dihydroquinoline-3-carboxamide] returned a melting point of 128.4 to 130.2 °C. Also, on S. aureus GyrB, the IC50 amounted to 0.83 ± 0.01 µM. For the compound `CCn1c(=O)c(C(=O)Nn2c(C)nc3ccccc3c2=O)c(O)c2ccccc21` [f13, N-(2-methyl-4-oxoquinazolin-3(4H)-yl)-1-ethyl-4-hydroxy-2-oxo-1,2-dihydroquinoline-3-carboxamide], the IC50 at S. aureus GyrB came out at 1.64 ± 0.23 µM. Regarding `CCCCCNC(=O)c1c(O)c2ccccc2n(C)c1=O` [AG-690/11232717], the inhibition at 10 µM on S. aureus GyrB is 13%. Same read-out and setting: with `CCCCCCn1c(=O)c(C(=O)Nc2nc(C)cs2)c(O)c2ccccc21` [AG-690/36956124] the figure was 10%; with `Cc1noc(NC(=O)c2c(O)c3cccc4c3n(c2=O)CCC4)c1C` [AE-641/00628057], 7%. The compound `CCCCCc1nc2c(C)cccc2c(=O)n1NC(=O)c1c(O)c2ccccc2n(CC)c1=O` [f11, N-(8-methyl-4-oxo-2-pentylquinazolin-3(4H)-yl)-1-ethyl-4-hydroxy-2-oxo-1,2-dihydroquinoline-3-carboxamide] returned a melting point of 142.7 to 144.3 °C. Besides, the half-maximal inhibitory concentration (IC50) on S. aureus GyrB amounted to 0.77 ± 0.02 µM. As to `CCCCCc1nc2c(Cl)cccc2c(=O)n1NC(=O)c1c(O)c2ccccc2n(CC)c1=O` [f10, N-(8-chloro-4-oxo-2-pentylquinazolin-3(4H)-yl)-1-ethyl-4-hydroxy-2-oxo-1,2-dihydroquinoline-3-carboxamide], the melting point was 158.6 to 160.4 °C. Besides, the IC50 at S. aureus GyrB was found to be 9.7 ± 2.1 µM. As to `CCCCCc1nc2cc(C)ccc2c(=O)n1NC(=O)c1c(O)c2ccccc2n(CC)c1=O` [f7, N-(7-methyl-4-oxo-2-pentylquinazolin-3(4H)-yl)-1-ethyl-4-hydroxy-2-oxo-1,2-dihydroquinoline-3-carboxamide], the melting point is 167.2 to 168.4 °C. Also, on S. aureus GyrB, the IC50 was 24.4 ± 4.5 µM. Take `CCCCCc1nc2cc(OC)ccc2c(=O)n1NC(=O)c1c(O)c2ccccc2n(CC)c1=O` [f8, N-(7-methoxy-4-oxo-2-pentylquinazolin-3(4H)-yl)-1-ethyl-4-hydroxy-2-oxo-1,2-dihydroquinoline-3-carboxamide]: the melting point was 146.8 to 147.6 °C. The IC50 on S. aureus GyrB came to 7.9 ± 0.1 µM. On the same counts, the results for `CCCCCc1nc2ccc(C)cc2c(=O)n1NC(=O)c1c(O)c2ccccc2n(CC)c1=O` [f3, N-(6-methyl-4-oxo-2-pentylquinazolin-3(4H)-yl)-1-ethyl-4-hydroxy-2-oxo-1,2-dihydroquinoline-3-carboxamide] are 160.6 to 162.3 °C and 0.83 ± 0.11 µM. Turning to `CCc1nc2ccccc2c(=O)n1NC(=O)c1c(O)c2ccccc2n(CC)c1=O` [f14, N-(2-ethyl-4-oxoquinazolin-3(4H)-yl)-1-ethyl-4-hydroxy-2-oxo-1,2-dihydroquinoline-3-carboxamide], the MIC is no less than 32 µg/mL in data set [1] (setting [2]); greater than 64 µg/mL in data set [1] (setting [3]); 32 µg/mL (≈ 79.1 µM) in data set [1] (setting [4]); 64 µg/mL (≈ 158 µM) in data set [1] (setting [5]); 64 µg/mL (≈ 158 µM) in data set [1] (MSSA, MSSA 15, read-out: MIC); greater than 64 µg/mL in data set [1] (MSSA, MSSA 18-3, read-out: MIC). Further, the IC50 on S. aureus GyrB is 0.28 ± 0.04 µM.

The inhibition is how much of the control response was suppressed. As a reminder, the melting point is the temperature, or range, at which the solid turns liquid. Broadly, the IC50 is the concentration that gives 50% inhibition. By MIC is commonly meant the lowest concentration that inhibits growth of the organism.
